# “Also recorded” adds a separate entry of the source.
# Experiments:
# [1] = tested on: plasma proteins; test: Venous blood, Luminex xMAP Multiplex Immunoassay Panel; format: cell-based; settings: room temperature storage, 3 to 5 days
# Description: After double-spin process, isolated plasma fractions were tested with Luminex xMAP Multiplex Immunoassay Panel.
# [2] = tested on: cfDNA; test: cfDNA stability: Qubit HS DNA Assay, total plasma cfDNA
# Excerpt: (§1) The drawn blood samples were stored at room temperature for up to 7 days. Total cell-free nucleic acids were isolated from day 0 or day 7 blood samples using Qiagen's QIAamp Circulating Nucleic Acid Kit.
# (§2) The resultant plasma cfDNA was first studied with Qubit HS DNA Assay (FIG. 5A), which quantifies the concentration of total plasma cfDNA. Without proper stabilization, white blood cells in drawn blood will lyse during storage and release large amounts of genomic DNA fragments into the plasma, leading to elevated total plasma cfDNA. Compared to cfDNA originating from white blood cells, tumor-derived cfDNA is preset at a very low concentration. Tumor-derived cfDNA should not be detectable in healthy donors.
# [3] = tested on: platelets; test: Tasso+ capillary blood study: plasma MPO and RANTES; format: cell-based; settings: venous and Tasso+ capillary blood, up to 3 days room temperature
# Description: Tasso+ is a single-use device that collects up to 0.5 mL of capillary blood from a donor's upper arm. Tasso+ is compatible with BD Microtainer® Blood Collection Tubes.
# Capillary blood samples were collected from 3 donors. […] Blood samples were stored at room temperature for up to 3 days. Three functionality assays were conducted, including measuring hemolysis (FIG. 8A) and testing the plasma level of MPO (FIG. 8B) and RANTES (FIG. 8C).
# [4] = tested on: β-Actin DNA (ACTB); test: Spray-coated microcollection tubes: plasma β-Actin by ddPCR
# Description: (§3) Blood was collected from healthy donors, each collected into 1×5 mL EDTA vacutainer tubes and virgin (no anticoagulant). Next, venous blood was aliquoted as quickly as possible into the spray-coated microtainers. The EDTA blood was aliquoted into virgin Greiner microtainers as negative controls. The blood with no anticoagulant was aliquoted into microcollection tubes spray coated with one of three formulations noted in Table 2 below, with two tubes per formulation. The sprayed microtainers were then mixed 15-20 times with the blood sample.
# (§4) Half of the samples were analyzed at draw time and the remaining half were stored at room temperature for 3 days before analysis. Plasma protein concentration of TGF-β1 was analyzed with Ella (FIG. 10). Plasma β-Actin level was determined by ddPCR (FIG. 11).
# [5] = tested on: red blood cells; test: TAP II capillary blood study: hemolysis (A414); format: cell-based; settings: venous blood and TAP II capillary blood, up to 3 days room temperature
# Excerpt: Blood samples were stored at room temperature for up to 3 days.
# [6] = tested on: RBC; test: In vitro hemolysis, absorbance at 414 nm (Nanodrop); format: cell-based; settings: venous blood, room temperature up to 5 days, N=15
# Excerpt: Hemolysis was quantitatively measured by following the absorbance at 414 nm with Nanodrop. An increased A414 indicates releasing of hemoglobin from broken RBC, which is a key event of hemolysis.
# [7] = tested on: cfRNA; test: cfRNA stability: Qubit miRNA Assay, total plasma cfRNA; settings: 7 days ambient storage
# Excerpt: (§5) Total cell-free nucleic acids were isolated from day 0 or day 7 blood samples using Qiagen's QIAamp Circulating Nucleic Acid Kit.
# Qubit miRNA Assay was used to quantify the concentration of total plasma cfRNA. If RNA-containing cells, such as reticulocytes and white blood cells, were lysed during storage, then large amounts of RNA fragments would be released into plasma, masking the very low abundant circulating cfRNA while resulting in elevated cfRNA.
# [8] = tested on: cfRNA; test: cfRNA stability: Agilent RNA Pico Kit, Bioanalyzer; settings: day 7 versus freshly collected blood
# Excerpt: as §5
# The plasma cfRNA was first analyzed with Agilent's RNA Pico Kit on the Agilent Bioanalyzer system (FIG. 6A).
# [9] = tested on: TGF-β1; test: Spray-coated microcollection tubes: plasma TGF-β1 (Ella); format: cell-based; settings: 3-day room temperature storage, spray-coated microcollection tubes (FIG. 10)
# Description: as §3, §4
# [10] = tested on: cfDNA; test: cfDNA stability: Agilent cfDNA ScreenTape Assay
# Excerpt: as §1
# Plasma cfDNA was further analyzed with Agilent cfDNA ScreenTape Assay on Agilent TapeStation (FIGS. 5C & 5D). […] Thus, the percentage of cfDNA between 150-300 bp among total cfDNA (% cfDNA) was used to indicate genomic DNA contamination (FIG. 5D).
# [11] = tested on: β-actin (ACTB); test: cfDNA stability: plasma β-actin (ACTB) by digital droplet PCR; settings: day 7 blood, ambient storage
# Excerpt: as §1, §2
# [12] = tested on: platelets; test: First round screening of platelet activation inhibitors: plasma TGF-β1 by Ella immunoassay; format: cell-based; settings: inhibitor added to Streck B formulation; venous blood at room temperature; data not shown
# Description: Blood specimens drawn from 3 donors were stored at room temperature for […]. Activated platelet secret granule contents, such as growth factors, chemokines, and cytokines, into plasma. Elevated plasma concentration of TGF-β1 indicates platelet activation and granule release. Plasma TGF-β1 level was measured with immunoassay using Ella Automated Immunoassay System. Freshly drawn blood (day 0), blood stored for 1 day (Day 1), 3 days (Day 3), and 7 days (Day 7) were tested.
# The tested formulations are compared with EDTA and ACD-A for their ability to prevent granule release from platelets. Streck B formulation spiked with 2 mM tetracaine was also used as a reference.
# [13] = tested on: platelets; test: Second round screening: % activated platelets (CD62P/CD61 flow cytometry) and plasma TGF-β1; format: cell-based; settings: inhibitor in Streck B formulation at 3 to 5 dosages; room temperature up to 7 days; data not shown
# Description: Preservative formulations were made by adding platelet activation inhibitors to the Streck B formulation at the desired concentrations. Venous blood specimens from 2 donors were then drawn into blood collection tubes (BCTs) prefilled with these formulations. As references, blood specimens were also drawn into EDTA tubes, ACD-A tubes, tubes filed with Streck B formulation, and tubes containing Streck B formulation spiked with and 2 mM tetracaine. Blood specimens were stored at room temperature for up to 7 days.
# The percentages of activated platelets (CD62P positive) among total platelets (CD61 positive) in drawn whole blood were measured by flow cytometry. The percentage of activated platelets was tested with Day 0 and Day 3 blood specimens. The plasma levels of TGF-β1 in Day 0, Day 1, Day 3, and Day 7 old blood specimens were measured with immunoassay.
# [14] = tested on: white blood cells, red blood cells, and platelets; test: Third round screening: plasma MPO, ferritin and RANTES as blood cell damage indicators; format: cell-based; settings: inhibitor in Streck B formulation; 7-day room temperature storage; data not shown
# Description: The effects of these seven inhibitors on white blood cells, red blood cells, and platelets were evaluated during the third round of screening. […] Therefore, plasma levels of myeloperoxidase (MPO), ferritin, and RANTES were measured with immunoassay as damage indicators of white blood cells, red blood cells, and platelets, respectively. Preservative formulations were made by adding platelet activation inhibitors to Streck B formulation at concentrations determined through the second round of screening. Venous blood was collected from 2 donors for all preservative formulations. EDTA, ACD-A, Streck B formulation and Streck B formulation spiked with 2 mM Tetracaine were used as references. Draw whole blood samples were stored at room temperature for up to 7 days.
# [15] = tested on: platelets; settings: 2 mM mexiletine or 1 mM verapamil in Streck B formulation; tubes stored 2-50° C. up to 8 weeks; data not shown
# Excerpt: Freshly made tubes, 2 weeks old tubes, 4 weeks old tubes, and 8 weeks old tubes were then used to collect venous blood from 2 self-proclaimed healthy donors. Blood specimens were stored at room temperature for up to 3 days. The percentage of platelet activation and plasma level of TGF-31 to test the ability of the aged formulation to prevent platelets activation at collection time and during room temperature storage.
Structure (SMILES),outcome of first round screening (maintaining plasma TGF-β1 comparable to Streck B formulation with tetracaine) [12],ability to reduce platelet activation in second round screening [13],"adverse effects on white blood cells, red blood cells and platelet [14]",also measured
"O=C(O)CN(CCN(CC(=O)O)CC(=O)O)CC(=O)O [EDTA, ethylene diamine tetra acetic acid]",,,,"plasma concentrations of representative proteins and cytokines (FIG. 2: MPO, TGF-β1, CCL5/RANTES, MMP-9, VEGF, Granzyme B, TNFα, IL-8) [1]: elevated levels; also recorded: marked increase; total plasma cfDNA concentration ([2]; day 0 blood): low concentrations of cfDNA; total plasma cfDNA concentration ([2]; day 7 blood, room temperature): elevated total cfDNA; granule release from activated platelets (plasma MPO and RANTES) [3]: increased; level of β-Actin in 3-day old plasma versus draw time plasma ([4]; 3 days room temperature (FIG. 11)): more than 20 fold; plasma β-Actin DNA level after storage (genomic DNA contamination) ([4]; 3 days room temperature, spray-coated tubes (FIG. 11)): led to genomic DNA (β-Actin) contamination; hemolysis [5]: induces hemolysis; in vitro hemolysis (A414) [6]: in vitro hemolysis since day 3; also recorded: significant hemolysis; increase of total cfRNA after storage [7]: ~5 fold; plasma cfRNA electropherogram (concentration and population) [8]: greatly changed; change of plasma TGF-β1 level after storage [9]: drastically increased; % cfDNA (cfDNA between 150-300 bp among total cfDNA) ([10]; Day 0 blood): 75%; plasma cfDNA electropherogram plots ([10]; Day 7 blood): prominent peak of apoptotic-ladder DNA; % cfDNA (cfDNA between 150-300 bp among total cfDNA) ([10]; Day 7 blood, room temperature): 30%; plasma level of β-actin (ACTB) DNA [11]: high amount of ACTB"
CCCCN1CCCCC1C(=O)Nc1c(C)cccc1C (stereo not drawn) [bupivacaine],graduated from the first round of the screening,behaved at least comparable to each other,little adverse effects,
COc1ccc([C@@H]2Sc3ccccc3N(CCN(C)C)C(=O)[C@@H]2OC(C)=O)cc1 [diltiazem],graduated from the first round of the screening,behaved at least comparable to each other,little adverse effects,
CCN(CC)CC(=O)Nc1c(C)cccc1C [lidocaine],,behaved at least comparable to each other,little adverse effects,
Cc1cccc(C)c1NC(=O)C1CCCCN1C (stereo not drawn) [mepivacaine],graduated from the first round of the screening,behaved at least comparable to each other,little adverse effects,
Cc1cccc(C)c1OCC(C)N (stereo not drawn) [mexiletine],graduated from the first round of the screening,behaved at least comparable to each other,little adverse effects,functional stability of aged formulations compared to other tested ion inhibitors [15]: better functional stability
C=C[C@H]1C[N@@]2CC[C@H]1C[C@@H]2[C@@H](O)c1ccnc2ccc(OC)cc12 [quinidine],graduated from the first round of the screening,behaved at least comparable to each other,little adverse effects,
COc1ccc(CCN(C)CCCC(C#N)(c2ccc(OC)c(OC)c2)C(C)C)cc1OC (stereo not drawn) [verapamil],graduated from the first round of the screening,behaved at least comparable to each other,little adverse effects,

# — patent US20260250641A1, “COMPOSITIONS AND USES THEREOF FOR STABILIZATION OF BLOOD SAMPLE COMPONENTS” (STRECK LLC, priority 2023, published 2026)
